Test results: patent US10350334B2, “Catheter locking solution having antimicrobial and anticoagulation properties” (Becton, Dickinson and Company, priority 2009, dated 2019)

Assays:
P. aeruginosa = assay: Minimum Biofilm Inhibitory Concentration (MBIC) test; type: cell-based, Pseudomonas aeruginosa; settings: for MBIC: adhered cells, 24 hours incubation; for MBIC Assuming 2 mL lock volume: amount in 2 mL lock volume
Experimental: (§1) To further evaluate the efficacy of local anesthetics in antimicrobial lock solutions of the present invention, the minimum concentration at which these drugs can inhibit biofilm growth was tested. The local anesthetics identified in Table 4 were tested against three different species of bacteria identified in Table 3 to assess the antimicrobial efficacy against adhered microbes. It is known that adhered microbes, or biofilms, can be more resistant to antimicrobials than planktonic cells.
(§2) Experiments were conducted against adhered microbes as follows: first, a test tube containing 10 mL of sterile TSB was inocubated with BD BBL™ Qualiswab™, with the strain of interest. The tube was placed in an incubator at 37° C. overnight. The next day, a flask containing 25 mL of sterile TSB (or Sabouraud Dextrose Broth (SDB) for fungal species) was inoculated with 1 mL of bacterial suspension. The flask was placed in an incubator at 37° C. and shaken at 150 RPM. The next day a new flask containing 25 mL of TSB (or SDB) media was inoculated with 1 mL from the previous culture. The bacterial or fungal species were allowed to grow to log phase.
(§3) After the microbes entered the log phase, their concentration was checked to ensure that they had reached a minimum of 1×10^8 CFU/mL per a 0.5 MacFarland standard. Microbes were diluted to a concentration of 1×10^5 CFU/mL using a nephelometer and 200 μL of the microbial suspensions were plated on each of the wells of a 96 well plate. The plate was incubated in a standard incubator at 37° C. for 2 hours to allow for microbial cell adhesion. Next, dilutions of the desired concentrations of antimicrobials were prepared. In a separate, blank plate, 1:2 serial dilutions were prepared with the highest concentration of the antimicrobial to the left of the plate, decreasing in concentration towards the right of the plate. For example, 170 μL of the highest concentration of an antimicrobial was dispensed in column 1 (left of plate). Each of the rest of the columns received 170 μL of saline. Column 2 received 170 μL of antimicrobial, making for a 1:2 dilution (or 50% of original concentration). Contents of Column 2 were then transferred to 3, then from 3 to 4, and so forth. Each well was supplemented with 20% media (TSB for S. epidermidis and P. aeruginosa and SDB for C. albicans), thereby ensuring the viability of the cells over the test time period (24 hours). Positive control wells had 20% media in saline. The bacterial plate was removed from the incubator, and bacterial suspension discarded (adhered cells remain on plate). The antimicrobial formulations identified in Table 4 were then added to the bacterial plate and incubated in a standard incubator at 37° C. for 24 hours. After this time period, solutions in the plate were discarded and plates were rinsed with 200 μL of saline. The cells were then fixed with 200 μL of 95% ethanol for 30 minutes, and allowed to air dry for 10 minutes. Next, the cells were stained for 20 minutes with 250 μL of a filtered solution of 2% crystal violet dye. The plates were then rinsed three times with water, and the 2% crystal violet dye was solubilized with 300 μL of 95% ethanol. The plates were allowed to stand for 10 minutes to complete solubilization and then the plates were read on a spectrophotometer at 570 nm absorbance, wherein high absorbance readings of >0.600 indicated microbial growth. Columns in the plate that had no growth were recorded as the […] (MBIC). FIG. 2 illustrates the MBIC corresponding to the specific local anesthetics.

S. epidermidis = assay: as above; type: cell-based, Staphylococcus epidermidis; settings: for MBIC: adhered cells, 24 hours incubation; for MBIC Assuming 2 mL lock volume: amount in 2 mL lock volume
Experimental: as §1, §2, §3

Candida albicans biofilm = assay: Catheter biofilm eradication (catheter segment test) on silicone tubing; type: cell-based; settings: 1 hour, silicone catheter segments
Experimental: (§4) To understand the antimicrobial effects of the local anesthetics used in the lock solution of the present invention in a clinical setting, a biofilm was grown on silicone catheter-like tubing and treated with various concentrations of local anesthetics. First, a sterile silicone catheter-like tube containing 10 mL TSB media was inoculated with a BD BBL™ Qualiswab™, and placed in an incubator at 37° C. overnight. The next day, a sterile flask containing 25 mL TSB (for bacterial species) or 25 mL SDB (for fungal species) was inoculated with the cultured cells. The morning of the experiment, a new flask containing 25 mL of media was inoculated with the new overnight suspension. These steps were taken to ensure that cells were in the log phase, which for S. epidermidis was ˜3-4 hours, and for C. albicans was around ˜18 hrs. […] Microbial concentrations were adjusted to 1×10^5 CFU/mL by dilution with appropriate media. Silicone catheter-like tubing was terminally sterilized by autoclaving the tube for 45 minutes at 121° C. The sterilized catheter-like tubing was inoculated with 1×10^5 CFU/mL for 2 hours under continuous flow. Continuous flow was created by using a peristaltic pump, in which bacterial suspension was flowed through the catheter segments into a waste reservoir. After the 2 hour time period, the same set up was used to pump TSB media through the tubing for an additional 24 hours to allow biofilm to form on the walls of the catheter lumen. After 24 hours, sterilized saline was pumped through the lumen for 30 minutes to rinse the catheters. Catheters were then cut into 1 inch segments using sterile techniques. Catheter segments were dropped into sterile tubes containing 4 mL of antimicrobials, and incubated in a 37° C. incubator shaker for 1 hour. Segments were removed from treatment tubes and placed into new tubes filled with 6 mL of sterile saline. Each segment was swabbed with a sterile swab and both the tube and the swab were sonicated (Ultrasonic cleaner VWR Model 250T) for 3 minutes. Tubes and swabs were then vortexed (Fisher Scientific Vortex Mixer #02-215-365) for 30 seconds each. One hundred microliters of suspension was plated onto TSB agar plates (SDB for fungal species). The remaining 5.9 mL of suspension was passed through 0.4 μm filters and filters were placed on TSB plates. This step was taken to ensure that all possible bacteria were being recovered. All TSB plates were then incubated at 37° C. in a static incubator for 24-48 hours, at which time colony forming units were counted.

[1] = tested on: Staphylococcus epidermidis biofilm; assay: as above; type: cell-based; settings: 1 hour, silicone catheter segments
Experimental: as §4

CCCCNc1ccc(C(=O)OCCN(C)C)cc1.Cl [Tetracaine, Tetracaine HCl]
MBIC (P. aeruginosa; HCl): 6.41 mg/mL
MBIC (P. aeruginosa; listed as tetracaine, HCl): 1.88 mg/mL
MBIC Assuming 2 mL lock volume (P. aeruginosa): 12.82 mg
MBIC (S. epidermidis; HCl): 0.94 mg/mL
MBIC (S. epidermidis; listed as tetracaine, HCl): 0.9 mg/mL
MBIC Assuming 2 mL lock volume (S. epidermidis): 1.88 mg
eradication of established biofilm (Candida albicans biofilm; 30 mg/mL): completely eradicated
Log reduction of established biofilm ([1]; 30 mg/mL): 1.7 Log

CCCCN1CCCCC1C(=O)Nc1c(C)cccc1C.Cl (centres unmarked) [Bupivacaine, Bupivacaine HCl]
MBIC (P. aeruginosa): 16.25 mg/mL
MBIC Assuming 2 mL lock volume (P. aeruginosa): 32.5 mg
MBIC (S. epidermidis): 8.12 mg/mL
MBIC Assuming 2 mL lock volume (S. epidermidis): 16.24 mg
Log reduction of established biofilm (Candida albicans biofilm): ~1 Log
Log reduction of established biofilm ([1]; 16 mg/mL): ~0.5 Log
